In paper PMC7156458, “Synthetic biology based construction of biological activity-related library of fungal decalin-containing diterpenoid pyrones” (Nature Communications, 2020):
Where two headings read alike, the source gives them in different places.

What was measured:
[1] = system: MCF-7 cells; assay: cell cytotoxic effects against MCF-7 cells (72 h), A490; format: cell-based, human; conditions: MCF-7, 72 h
Experimental: !" ' ' '! !" ' ' '! !" ' ' '!!" ' ' '!!" ' ' '!!" ' ' '!!" ' ' '!!" ' ' '! !" ' ' '! !" ' ' '! !" ' ' '! !"#$
( % ) * '! '' '# '+ '$ '( '%
! " # $ %& %% %' %( %) %! %"
!" ' ' '! !" ' ' '!!" ' ' '!!" ' ' '!!" ' ' '!!" ' ' '!!" ' ' '! !" ' ' '! !" ' ' '! !" ' ' '! !" ' ' '! […]
Supplementary Fig. 46. a, Cell cytotoxic effects of DDPs against MCF-7 cells (72 h).
dose dependent cytotoxic effects against MCF-7 cells were tested their inhibitory activity against mammosphere
formation. Compound in blue (16) was also performed mammosphere assay as negative control. Data represent
mean±s.d. from three independent replicate experiments. […]
Source data underlying Supplementary Figure 46a are provided in a Source Data file. […]

[2] = system: human immunodeficiency virus-1 (HIV-1); assay: anti-HIV MAGI assay; format: cell-based; conditions: anti-HIV; single determinations; read-out: Efficacy (EC50)
From the text: We examined the inhibitory activities of DDPs against various species of bacteria (both gram-negative and gram-positive bacteria), fungi and viruses. […] In contrast, preliminary screening of the DDPs for anti-viral agents with hepatitis B virus (HBV), measles virus (MV), Epstein-Barr virus (EBV), herpes simplex virus (HSV) and human immunodeficiency virus-1 (HIV-1) indicated their selective inhibition of HIV.

[3] = cytotoxicity in Drosophila l(2)mbn cells; format: cell-based; conditions: Drosophila, l(2)mbn cells (larval blood cell-derived)
Experimental: (§1) We screened the DDPs on the Drosophila assay system for cytotoxicity, inhibitory activity of innate immune signalling and insecticidal activity. The cytotoxicity of the DDPs was evaluated using two cell lines, embryonic macrophage-derived DL1 cells[58]–[60] and larval blood cell-derived l(2)mbn cells, and their IC50 values are listed in Supplementary Table 23.

[4] = system: l(2)mbn cells; assay: cytotoxicity in Drosophila l(2)mbn cells; format: cell-based; conditions: for Luminescence Raw1: replicate 1; for Luminescence Raw2: replicate 2; for % viability, viability 1: replicate 1, relative to DMSO 1%; for % viability, viability 2: replicate 2, relative to DMSO 1%; for IC50: cytotoxicity
Experimental: as §1

[5] = cytotoxicity in Drosophila DL1 cells; format: cell-based; conditions: Drosophila, DL1 cells (embryonic macrophage-derived), DL1 cells
Experimental: as §1

[6] = system: DL1 cells; assay: cytotoxicity in Drosophila DL1 cells; format: cell-based; conditions: DL1 cells; for % viability, viability 1: replicate 1, relative to DMSO 1%; for % viability, viability 2: replicate 2, relative to DMSO 1%; for IC50: cytotoxicity
Experimental: as §1

[7] = replicate 1, relative to DMSO 1%, read-out: % viability, viability 1
[8] = replicate 2, relative to DMSO 1%, read-out: % viability, viability 2
[9] = average of two replicates, read-out: IC50 Average
[10] = replicate 1, read-out: IC50 (1)
[11] = replicate 2, read-out: IC50 (2)

What does the source list for C=C1CCC2C(C)(CCC=C(C)C)C(O)CCC2(C)C1Cc1c(O)c(C)c(C)oc1=O (stereo not drawn) [Compound 9, higginsianin B]?
viability at 0.1 µM ([1]; Homo sapiens, MCF7, 72 h, 0.1 µM (DMSO 0.002%), read-out: A490 (control =1) ave): 53.1%; viability at 1 µM ([1]; Homo sapiens, MCF7, 72 h, 1 µM (DMSO 0.02%), read-out: A490 (control =1) ave): 95.5%; viability at 10 µM ([1]; Homo sapiens, MCF7, 72 h, 10 µM (DMSO 0.2%), read-out: A490 (control =1) ave): 27.3%; A490 ave ([1]; 0.1 µM (DMSO 0.002%), control 1.064): 0.565; A490 ave ([1]; 1 µM (DMSO 0.02%), control 1.104): 1.055; A490 ave ([1]; 10 µM (DMSO 0.2%), control 1.049): 0.286; EC50 [2]: > 10000 nM; viability at 0.04 µM [3, 7]: 90.8%; viability at 0.04 µM [3, 8]: 91.3%; viability at 0.2 µM [3, 7]: 92.2%; viability at 0.2 µM [3, 8]: 95.4%; viability at 1 µM [3, 7]: 85%; viability at 1 µM [3, 8]: 84.3%; viability at 20 µM ([3]; 20 µM, replicate 2, relative to DMSO 1%, read-out: % viability, viability 2): 3.01%; Luminescence Raw1 ([4]; 0.04 µM): 5700406; Luminescence Raw2 ([4]; 0.04 µM): 5730357; Luminescence Raw1 ([4]; 0.2 µM): 5787371; Luminescence Raw2 ([4]; 0.2 µM): 5991618; Luminescence Raw1 ([4]; 1 µM): 5334874; Luminescence Raw2 ([4]; 1 µM): 5292296; Luminescence Raw1 ([4]; 4 µM): 375575; % viability, viability 1 ([4]; 4 µM): 5.981%; Luminescence Raw2 ([4]; 4 µM): 295889; % viability, viability 2 ([4]; 4 µM): 4.712%; Luminescence Raw1 ([4]; 10 µM): 141567; % viability, viability 1 ([4]; 10 µM): 2.255%; Luminescence Raw2 ([4]; 10 µM): 144091; % viability, viability 2 ([4]; 10 µM): 2.295%; Luminescence Raw1 ([4]; 20 µM): 140485; % viability, viability 1 ([4]; 20 µM): 2.2373%; Luminescence Raw2 ([4]; 20 µM): 188801; IC50 [4, 9]: 1540 nM; IC50 ([4]; average±SEM, read-out: IC50): 1540 ± 10 nM; IC50 [4, 10]: 1540 nM; IC50 [4, 11]: 1540 nM; viability at 0.04 µM ([5]; 0.04 µM, replicate 2, relative to DMSO 1%, read-out: % viability, viability 2): 202%; viability at 0.2 µM ([5]; 0.2 µM, replicate 1, relative to DMSO 1%, read-out: % viability, viability 1): 190%; viability at 4 µM [5, 7]: 20.9%; viability at 4 µM [5, 8]: 22.6%; viability at 10 µM [5, 7]: 20.4%; viability at 10 µM [5, 8]: 21.1%; viability at 20 µM [5, 7]: 19.2%; viability at 20 µM [5, 8]: 18%; Luminescence Raw1 ([6]; 0.04 µM, replicate 1): 3124696; % viability, viability 1 ([6]; 0.04 µM): 227.835%; Luminescence Raw2 ([6]; 0.04 µM, replicate 2): 2770120; Luminescence Raw1 ([6]; 0.2 µM, replicate 1): 2602758; Luminescence Raw2 ([6]; 0.2 µM, replicate 2): 2435040; % viability, viability 2 ([6]; 0.2 µM): 177.549%; Luminescence Raw1 ([6]; 1 µM, replicate 1): 371891; % viability, viability 1 ([6]; 1 µM): 27.1162%; Luminescence Raw2 ([6]; 1 µM, replicate 2): 463117; % viability, viability 2 ([6]; 1 µM): 33.7678%; Luminescence Raw1 ([6]; 4 µM, replicate 1): 286075; Luminescence Raw2 ([6]; 4 µM, replicate 2): 310594; Luminescence Raw1 ([6]; 10 µM, replicate 1): 279225; Luminescence Raw2 ([6]; 10 µM, replicate 2): 288960; Luminescence Raw1 ([6]; 20 µM, replicate 1): 263360; Luminescence Raw2 ([6]; 20 µM, replicate 2): 246413; IC50 [6, 9]: 361 nM; IC50 ([6]; average±SEM, read-out: IC50): 360 ± 30 nM; IC50 [6, 10]: 328 nM; IC50 [6, 11]: 394 nM
